The source made the active and inactive calls.

For assay [1], the target named is T1, Tyrosine-protein phosphatase non-receptor type 7 (Homo sapiens, UniProt P35236).
T1 sequence (P35236 whole entry): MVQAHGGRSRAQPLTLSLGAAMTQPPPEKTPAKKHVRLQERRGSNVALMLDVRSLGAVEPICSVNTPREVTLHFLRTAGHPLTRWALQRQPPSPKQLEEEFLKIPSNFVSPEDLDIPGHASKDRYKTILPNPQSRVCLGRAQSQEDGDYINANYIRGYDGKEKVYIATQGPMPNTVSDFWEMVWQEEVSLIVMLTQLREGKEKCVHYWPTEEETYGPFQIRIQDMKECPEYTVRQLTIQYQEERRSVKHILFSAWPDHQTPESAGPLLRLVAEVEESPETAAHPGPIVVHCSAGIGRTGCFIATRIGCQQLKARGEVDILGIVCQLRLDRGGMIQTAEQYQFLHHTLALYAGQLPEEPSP
The format is functional.

Assay [2] deals with T2, Tyrosine-protein phosphatase non-receptor type 22 (Homo sapiens, UniProt Q9Y2R2).
T2 sequence (Q9Y2R2 whole entry): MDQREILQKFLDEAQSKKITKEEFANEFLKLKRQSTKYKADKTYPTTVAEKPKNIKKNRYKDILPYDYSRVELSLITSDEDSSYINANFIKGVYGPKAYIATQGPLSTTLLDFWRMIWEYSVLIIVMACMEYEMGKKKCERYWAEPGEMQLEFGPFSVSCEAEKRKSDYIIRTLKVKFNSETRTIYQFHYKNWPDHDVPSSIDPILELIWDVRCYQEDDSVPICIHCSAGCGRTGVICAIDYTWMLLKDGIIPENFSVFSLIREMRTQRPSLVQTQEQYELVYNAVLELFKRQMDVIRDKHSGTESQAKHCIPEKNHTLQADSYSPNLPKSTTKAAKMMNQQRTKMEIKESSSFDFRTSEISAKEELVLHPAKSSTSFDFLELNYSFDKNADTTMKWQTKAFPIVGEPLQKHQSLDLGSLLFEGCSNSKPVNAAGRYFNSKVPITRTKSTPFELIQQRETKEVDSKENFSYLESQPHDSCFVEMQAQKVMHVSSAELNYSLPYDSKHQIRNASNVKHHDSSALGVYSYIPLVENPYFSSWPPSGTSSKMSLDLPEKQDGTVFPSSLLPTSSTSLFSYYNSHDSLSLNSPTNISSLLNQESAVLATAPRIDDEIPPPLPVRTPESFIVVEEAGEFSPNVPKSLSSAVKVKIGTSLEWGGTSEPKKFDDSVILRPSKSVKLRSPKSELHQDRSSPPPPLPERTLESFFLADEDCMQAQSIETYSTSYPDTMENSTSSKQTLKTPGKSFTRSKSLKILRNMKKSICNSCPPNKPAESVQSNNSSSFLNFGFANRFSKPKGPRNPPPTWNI
The format is functional.

Assay [3] deals with T2, Tyrosine-protein phosphatase non-receptor type 22. The format is functional. This is another data set of the same source.
Assay [4] has as its target T3, Delta-type opioid receptor (Homo sapiens, UniProt P41143). Nature of the assay: HTS Image-Based Screen for Agonists of the DOR Receptor. [Related pubchem assays (depositor defined):AID1777, AID1786, AID2133]. In kind it is functional.
A further assay addresses Mu-type opioid receptor (Homo sapiens, UniProt P35372). Nature of the assay: HTS Image-Based Screen for Agonists of the MOR Receptor. [Related pubchem assays (depositor defined):AID1777, AID1785, AID1786, AID2133]. In kind it is functional.
In assay [5] the target is T4, Kappa-type opioid receptor (Homo sapiens, UniProt P41145). The format is functional.
For assay [6], the target named is T5, Corticotropin-releasing factor receptor 2/Corticotropin-releasing factor-binding protein (Homo sapiens, UniProt P24387+Q13324).
T5 sequence (Q13324 whole entry): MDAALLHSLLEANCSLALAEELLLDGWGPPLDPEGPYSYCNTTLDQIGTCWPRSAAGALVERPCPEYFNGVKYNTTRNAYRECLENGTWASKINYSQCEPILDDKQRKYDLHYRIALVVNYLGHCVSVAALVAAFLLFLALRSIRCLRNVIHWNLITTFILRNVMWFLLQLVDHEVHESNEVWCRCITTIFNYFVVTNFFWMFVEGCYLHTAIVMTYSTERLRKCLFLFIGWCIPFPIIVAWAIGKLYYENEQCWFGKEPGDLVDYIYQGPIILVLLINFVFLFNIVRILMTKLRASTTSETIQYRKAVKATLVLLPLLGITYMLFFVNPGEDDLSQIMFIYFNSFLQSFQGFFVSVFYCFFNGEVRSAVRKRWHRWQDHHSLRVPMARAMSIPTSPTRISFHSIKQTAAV
T5 sequence (P24387 whole entry): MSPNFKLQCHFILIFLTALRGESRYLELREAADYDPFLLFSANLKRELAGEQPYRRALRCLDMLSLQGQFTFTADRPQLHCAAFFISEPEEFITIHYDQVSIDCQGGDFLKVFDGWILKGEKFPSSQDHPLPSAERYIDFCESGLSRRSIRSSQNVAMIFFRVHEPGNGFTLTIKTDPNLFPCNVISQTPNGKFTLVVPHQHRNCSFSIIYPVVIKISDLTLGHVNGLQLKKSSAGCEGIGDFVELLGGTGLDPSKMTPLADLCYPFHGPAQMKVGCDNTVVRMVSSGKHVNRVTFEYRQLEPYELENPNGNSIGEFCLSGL
The experiment in a line: activators of CRF receptor 2 with binding protein – uHTS hits, confirmation (AID 602473). In kind it is functional. The settings on record: read-out: EC50_Mean.

In assay [7] the target is T3, Delta-type opioid receptor. The experiment in a line: HTS Image-Based Screen for Antagonists of the DOR Receptor. [Related pubchem assays (depositor defined):AID1777, AID1785, AID1786, AID2133]. In kind it is functional.
Assay [8] concerns the target T4, Kappa-type opioid receptor. In kind it is functional. The source holds these as a separate data set.
The target in assay [9] is T6, Peroxisome proliferator-activated receptor gamma (Homo sapiens, UniProt P37231).
T6 sequence (P37231 whole entry): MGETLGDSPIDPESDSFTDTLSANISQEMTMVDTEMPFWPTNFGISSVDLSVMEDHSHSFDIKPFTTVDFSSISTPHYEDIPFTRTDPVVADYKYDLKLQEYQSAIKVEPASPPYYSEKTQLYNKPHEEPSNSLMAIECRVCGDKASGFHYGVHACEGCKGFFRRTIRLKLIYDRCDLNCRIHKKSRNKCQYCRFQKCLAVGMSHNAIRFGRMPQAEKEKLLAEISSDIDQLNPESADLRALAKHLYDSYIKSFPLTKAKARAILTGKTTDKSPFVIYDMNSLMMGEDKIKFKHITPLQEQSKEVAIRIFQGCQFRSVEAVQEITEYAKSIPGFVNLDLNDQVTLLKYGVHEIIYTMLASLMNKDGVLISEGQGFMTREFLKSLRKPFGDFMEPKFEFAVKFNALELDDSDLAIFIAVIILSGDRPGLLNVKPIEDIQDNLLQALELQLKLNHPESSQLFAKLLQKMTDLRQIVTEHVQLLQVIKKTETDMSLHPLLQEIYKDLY
Nature of the assay: PPARg partial agonists, dose response, cell-based, luminescence, assay provider (AID 504447). In kind it is functional.

The target in assay [10] is Peroxisome proliferator-activated receptor gamma/Nuclear receptor coactivator 2 (Homo sapiens, UniProt P37231). Nature of the assay: TR-FRET dose response biochemical High Throughput Screening assay for agonists of the steroid receptor coactivator 2 (SRC-2) recruitment by the peroxisome proliferator-activated receptor gamma (PPAR gamma): non-selective agonists. [Related pubchem assays: 1297, 1032 ]. The format is functional.

Assay [11] concerns the target Peroxisome proliferator-activated receptor gamma/Nuclear receptor coactivator 1 (Homo sapiens, UniProt P37231). The experiment in a line: TR-FRET dose response biochemical High Throughput Screening assay for agonists of the steroid receptor coactivator 1 (SRC-1) recruitment by the peroxisome proliferator-activated receptor gamma (PPAR gamma): non-selective agonists. [Related pubchem assays (depositor defined):AID1300, AID1808, AID504735, AID631]. In kind it is protein assay.

Assay [12] has as its target Peroxisome proliferator-activated receptor gamma/Nuclear receptor coactivator 3 (Homo sapiens, UniProt P37231). Nature of the assay: TR-FRET dose response biochemical High Throughput Screening assay for agonists of the steroid receptor coactivator 3 (SRC-3) recruitment by the peroxisome proliferator-activated receptor gamma (PPAR gamma): non-selective agonists. [Related pubchem assays: 1301 (Confirmation screen.), 1048 (Primary screen.)]. The format is functional. On the technique in general: In TR-FRET formats the signal depends on donor and acceptor labels being close together.

The target in a further assay is Major prion protein (Homo sapiens, UniProt P04156). In kind it is functional, cell-based.

T3 sequence (P41143 whole entry): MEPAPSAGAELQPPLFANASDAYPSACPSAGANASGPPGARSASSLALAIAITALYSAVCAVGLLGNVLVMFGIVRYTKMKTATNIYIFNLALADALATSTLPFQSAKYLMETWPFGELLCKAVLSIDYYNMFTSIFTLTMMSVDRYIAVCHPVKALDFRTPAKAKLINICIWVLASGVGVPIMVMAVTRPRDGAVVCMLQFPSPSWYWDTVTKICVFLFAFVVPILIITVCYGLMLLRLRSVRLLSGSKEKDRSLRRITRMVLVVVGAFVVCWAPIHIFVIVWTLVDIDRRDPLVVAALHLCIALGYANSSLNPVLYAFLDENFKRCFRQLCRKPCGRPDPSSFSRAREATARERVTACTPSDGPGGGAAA
T4 sequence (P41145 whole entry): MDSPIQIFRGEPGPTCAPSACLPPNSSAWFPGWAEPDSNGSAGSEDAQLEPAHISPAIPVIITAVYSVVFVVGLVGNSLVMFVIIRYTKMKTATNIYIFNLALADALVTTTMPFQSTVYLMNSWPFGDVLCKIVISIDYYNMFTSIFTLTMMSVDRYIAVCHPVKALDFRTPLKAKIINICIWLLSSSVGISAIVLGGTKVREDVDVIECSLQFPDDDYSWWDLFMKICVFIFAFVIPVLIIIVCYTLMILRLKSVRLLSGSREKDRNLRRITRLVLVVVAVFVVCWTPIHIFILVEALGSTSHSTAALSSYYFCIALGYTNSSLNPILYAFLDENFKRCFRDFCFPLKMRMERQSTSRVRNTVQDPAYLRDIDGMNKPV
Peroxisome proliferator-activated receptor gamma/Nuclear receptor coactivator 3, sequence (Q9Y6Q9 whole entry, one chain of several, further chain): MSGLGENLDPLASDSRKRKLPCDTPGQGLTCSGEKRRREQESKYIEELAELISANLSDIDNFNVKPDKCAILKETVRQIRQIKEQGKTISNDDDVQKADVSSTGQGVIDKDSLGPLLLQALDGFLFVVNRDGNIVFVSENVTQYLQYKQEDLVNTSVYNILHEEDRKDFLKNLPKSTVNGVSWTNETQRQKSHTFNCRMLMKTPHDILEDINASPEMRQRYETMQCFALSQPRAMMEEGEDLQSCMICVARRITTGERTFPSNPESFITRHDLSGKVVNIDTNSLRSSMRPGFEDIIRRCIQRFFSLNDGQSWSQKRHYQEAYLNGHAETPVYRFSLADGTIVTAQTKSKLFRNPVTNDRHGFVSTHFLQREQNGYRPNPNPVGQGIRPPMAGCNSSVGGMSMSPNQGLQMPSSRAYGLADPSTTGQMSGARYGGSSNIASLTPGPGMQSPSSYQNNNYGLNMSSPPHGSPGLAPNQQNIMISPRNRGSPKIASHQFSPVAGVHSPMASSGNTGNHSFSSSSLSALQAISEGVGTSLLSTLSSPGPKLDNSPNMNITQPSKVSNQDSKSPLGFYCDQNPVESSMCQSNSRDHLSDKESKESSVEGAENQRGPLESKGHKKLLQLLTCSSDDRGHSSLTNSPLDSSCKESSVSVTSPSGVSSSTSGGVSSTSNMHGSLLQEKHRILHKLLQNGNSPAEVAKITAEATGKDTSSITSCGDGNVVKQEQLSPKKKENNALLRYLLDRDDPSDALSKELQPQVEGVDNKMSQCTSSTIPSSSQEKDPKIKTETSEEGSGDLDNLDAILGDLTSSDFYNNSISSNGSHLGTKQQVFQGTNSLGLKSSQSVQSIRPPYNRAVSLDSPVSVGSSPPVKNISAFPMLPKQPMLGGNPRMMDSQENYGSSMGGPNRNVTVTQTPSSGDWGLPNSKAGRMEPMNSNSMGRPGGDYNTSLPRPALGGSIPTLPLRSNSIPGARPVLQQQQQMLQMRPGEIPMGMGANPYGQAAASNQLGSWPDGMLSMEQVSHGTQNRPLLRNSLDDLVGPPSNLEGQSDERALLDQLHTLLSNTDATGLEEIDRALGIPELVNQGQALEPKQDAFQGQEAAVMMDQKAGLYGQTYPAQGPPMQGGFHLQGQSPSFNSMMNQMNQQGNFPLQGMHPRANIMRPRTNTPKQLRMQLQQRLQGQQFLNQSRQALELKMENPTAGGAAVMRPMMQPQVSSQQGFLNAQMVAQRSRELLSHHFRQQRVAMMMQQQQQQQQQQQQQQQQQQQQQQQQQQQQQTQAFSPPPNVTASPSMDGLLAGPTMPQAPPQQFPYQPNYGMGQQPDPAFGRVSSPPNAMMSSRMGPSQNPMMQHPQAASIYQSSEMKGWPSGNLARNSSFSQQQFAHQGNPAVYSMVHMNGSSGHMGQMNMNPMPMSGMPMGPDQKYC
Peroxisome proliferator-activated receptor gamma/Nuclear receptor coactivator 2, sequence (Q15596 whole entry, one chain of several, further chain): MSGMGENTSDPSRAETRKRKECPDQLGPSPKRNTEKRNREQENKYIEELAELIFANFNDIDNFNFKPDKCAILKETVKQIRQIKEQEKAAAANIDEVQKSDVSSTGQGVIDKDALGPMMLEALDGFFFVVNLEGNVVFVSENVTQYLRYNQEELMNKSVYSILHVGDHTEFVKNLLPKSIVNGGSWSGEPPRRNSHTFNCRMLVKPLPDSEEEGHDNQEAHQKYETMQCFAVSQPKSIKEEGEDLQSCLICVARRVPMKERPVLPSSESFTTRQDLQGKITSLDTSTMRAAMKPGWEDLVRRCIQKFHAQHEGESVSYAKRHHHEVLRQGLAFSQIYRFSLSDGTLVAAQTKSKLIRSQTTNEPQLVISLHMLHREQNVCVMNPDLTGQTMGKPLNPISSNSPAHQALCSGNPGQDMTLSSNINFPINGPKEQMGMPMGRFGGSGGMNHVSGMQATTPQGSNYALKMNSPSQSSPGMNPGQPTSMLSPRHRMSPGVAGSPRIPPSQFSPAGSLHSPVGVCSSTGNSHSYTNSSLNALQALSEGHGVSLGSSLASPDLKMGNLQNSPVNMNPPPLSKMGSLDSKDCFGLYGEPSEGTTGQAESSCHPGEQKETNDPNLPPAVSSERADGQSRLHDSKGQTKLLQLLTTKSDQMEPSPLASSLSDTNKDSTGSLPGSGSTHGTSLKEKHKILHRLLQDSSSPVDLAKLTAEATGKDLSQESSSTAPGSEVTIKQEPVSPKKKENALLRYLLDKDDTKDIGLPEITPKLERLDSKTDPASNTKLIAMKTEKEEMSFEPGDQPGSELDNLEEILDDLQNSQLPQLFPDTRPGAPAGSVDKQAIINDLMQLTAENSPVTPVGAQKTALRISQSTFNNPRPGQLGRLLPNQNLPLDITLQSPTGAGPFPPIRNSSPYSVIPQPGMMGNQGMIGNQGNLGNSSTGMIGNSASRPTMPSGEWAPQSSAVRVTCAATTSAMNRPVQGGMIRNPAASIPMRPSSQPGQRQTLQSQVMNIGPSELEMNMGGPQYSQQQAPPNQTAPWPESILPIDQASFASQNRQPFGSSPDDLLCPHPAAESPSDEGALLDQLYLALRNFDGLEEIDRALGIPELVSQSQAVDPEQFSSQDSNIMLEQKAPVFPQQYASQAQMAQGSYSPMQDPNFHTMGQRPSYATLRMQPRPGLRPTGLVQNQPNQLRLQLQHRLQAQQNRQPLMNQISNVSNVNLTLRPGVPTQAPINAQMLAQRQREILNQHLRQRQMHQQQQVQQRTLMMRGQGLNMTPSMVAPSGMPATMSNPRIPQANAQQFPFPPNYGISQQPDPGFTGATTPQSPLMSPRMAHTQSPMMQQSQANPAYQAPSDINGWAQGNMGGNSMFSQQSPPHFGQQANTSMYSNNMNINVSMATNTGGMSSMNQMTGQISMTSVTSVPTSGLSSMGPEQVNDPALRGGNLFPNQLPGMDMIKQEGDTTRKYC
Peroxisome proliferator-activated receptor gamma/Nuclear receptor coactivator 1, sequence (Q15788 whole entry, one chain of several, further chain): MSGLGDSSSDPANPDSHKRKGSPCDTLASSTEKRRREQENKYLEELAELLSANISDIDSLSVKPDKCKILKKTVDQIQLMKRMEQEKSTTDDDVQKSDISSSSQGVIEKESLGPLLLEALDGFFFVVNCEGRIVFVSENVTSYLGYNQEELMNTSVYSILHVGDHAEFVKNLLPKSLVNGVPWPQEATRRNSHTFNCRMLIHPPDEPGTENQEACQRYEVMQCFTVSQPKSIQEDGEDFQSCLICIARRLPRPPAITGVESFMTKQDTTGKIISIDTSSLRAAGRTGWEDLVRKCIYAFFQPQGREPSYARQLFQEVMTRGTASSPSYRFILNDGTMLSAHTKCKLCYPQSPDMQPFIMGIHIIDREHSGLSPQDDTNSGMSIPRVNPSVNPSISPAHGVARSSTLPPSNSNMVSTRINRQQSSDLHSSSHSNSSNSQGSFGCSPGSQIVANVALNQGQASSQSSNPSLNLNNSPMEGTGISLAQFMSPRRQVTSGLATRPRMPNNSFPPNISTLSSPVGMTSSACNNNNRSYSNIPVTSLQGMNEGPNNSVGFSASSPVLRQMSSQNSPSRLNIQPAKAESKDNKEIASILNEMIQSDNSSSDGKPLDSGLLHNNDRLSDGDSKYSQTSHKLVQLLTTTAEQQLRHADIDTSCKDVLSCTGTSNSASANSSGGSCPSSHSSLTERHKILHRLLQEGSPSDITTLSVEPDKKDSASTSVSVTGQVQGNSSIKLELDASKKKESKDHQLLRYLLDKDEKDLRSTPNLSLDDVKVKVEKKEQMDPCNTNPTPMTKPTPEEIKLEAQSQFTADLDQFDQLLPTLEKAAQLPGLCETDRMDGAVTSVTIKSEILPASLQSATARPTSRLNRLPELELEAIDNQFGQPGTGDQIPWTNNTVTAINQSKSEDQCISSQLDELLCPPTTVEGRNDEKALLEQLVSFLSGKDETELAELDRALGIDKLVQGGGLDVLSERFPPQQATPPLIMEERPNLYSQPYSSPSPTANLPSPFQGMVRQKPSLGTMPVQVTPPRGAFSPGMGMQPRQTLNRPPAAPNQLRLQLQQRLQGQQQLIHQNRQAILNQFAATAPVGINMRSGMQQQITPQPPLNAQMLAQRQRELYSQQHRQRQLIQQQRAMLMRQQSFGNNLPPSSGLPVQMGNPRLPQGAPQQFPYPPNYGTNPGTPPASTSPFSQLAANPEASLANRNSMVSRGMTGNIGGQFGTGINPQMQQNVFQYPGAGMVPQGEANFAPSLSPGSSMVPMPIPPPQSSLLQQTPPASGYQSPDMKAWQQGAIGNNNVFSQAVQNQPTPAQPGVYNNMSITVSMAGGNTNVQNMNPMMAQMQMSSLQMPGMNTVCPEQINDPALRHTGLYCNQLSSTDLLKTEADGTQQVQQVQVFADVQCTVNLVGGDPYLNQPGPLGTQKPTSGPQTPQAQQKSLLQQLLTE

In general, IC50 refers to the concentration at which inhibition is half-maximal. For the molecule `Cc1ccc(C)n1-c1ccc(-c2cc[nH]n2)cc1`, the IC50 in [1], in assay [2] and in assay [3] was > 79.4 µM (inactive) in each case.
In the case of `O=C(c1ccc([N+](=O)[O-])cc1)N(Cc1ccc(Cl)cc1)N1C(=O)CCCC1=O`, the EC50 was > 32 µM (inactive) in assay [4]; > 32 µM (inactive) on Mu-type opioid receptor; > 35 µM in [5]; 0.709 µM (active) in [6]; 5.66 µM in assay [8]. Moreover, the IC50 in assay [7] is > 32 µM (inactive).
Take `COc1ccc2c(c1)c(=O)c(C(=O)c1ccc(F)cc1)cn2CC(=O)Nc1ccc(F)cc1`: the EC50 in assay [9] was 1.8 µM (active).
Consider `COC(=O)c1cc(Cl)c(NC(=O)c2cc3ccccc3o2)cc1OC`, for which the EC50 in assay [10] is 12.3 µM (not active); in assay [11], 7.17 µM (active); in assay [12], 63 µM (not active).
For `CC(=O)CSc1nc(-c2cccs2)c(C#N)c(=O)[nH]1`, the EC50 in [10] was > 79.4 µM (not active); in assay [11], > 79.4 µM (inactive); in [12], > 79.4 µM (not active). The IC50 at Major prion protein is 2.27 µM (active).

The record behind these values is ChEMBL document CHEMBL1201862, “PubChem BioAssay data set” (2004).
